Measurements published in publication PMC11822212, “High-throughput screening identifies Aurora kinase B as a critical therapeutic target for Merkel cell carcinoma” (Nature Communications, 2025).
Where “and” joins values, the source holds several entries; their conditions need not be identical. Equal entries are not always repeated. Structures can show the parent of a compound that is named as a salt. Where two headings read alike, the source gives them in different places.

How the values were obtained:
[1] = tested on: VN-MCC cell lines (MCC13, MCC26, UISO); assay: qHTS cell viability, VN-MCC cell lines as a group (mean AUC, VN.MCC.avg); assay type: cell-based, human
[2] = tested on: MCC13 cells (VN-MCC); assay: qHTS cell viability (CellTiter-Glo, 72 h; primary and follow-up small molecule screen); assay type: cell-based, human; conditions: for Area under the dose-response curve (AUC) MCC13 Replicate 1 / Area under the dose-response curve (AUC) MCC13 Replicate 2 / Area under the dose-response curve (AUC) MCC13 Replicate 3: follow-up screen
[3] = tested on: VP-MCC cell lines (WAGA, MKL-1, MKL-2); assay: qHTS cell viability, VP-MCC cell lines as a group (mean AUC, VP.MCC.avg); assay type: cell-based, human
[4] = tested on: NIH-3T3 cells; assay: qHTS cell viability (CellTiter-Glo, 72 h; primary screen), control cell line; assay type: cell-based, mouse
[5] = tested on: HACAT cells; assay: as above; assay type: cell-based, human
[6] = tested on: MKL-1 cells (VP-MCC); assay: qHTS cell viability (CellTiter-Glo, 72 h; primary and follow-up small molecule screen); assay type: cell-based, human; conditions: for Area under the dose-response curve (AUC) MKL-1 Replicate 1 / Area under the dose-response curve (AUC) MKL-1 Replicate 2 / Area under the dose-response curve (AUC) MKL-1 Replicate 3: follow-up screen
[7] = tested on: MKL-2 cells (VP-MCC); assay: as above; assay type: cell-based, human; conditions: for Area under the dose-response curve (AUC) MKL-2 Replicate 1 / Area under the dose-response curve (AUC) MKL-2 Replicate 2 / Area under the dose-response curve (AUC) MKL-2 Replicate 3: follow-up screen
[8] = tested on: MCC cell lines (WAGA, MKL-1, MKL-2, MCC13, MCC26, UISO); assay: qHTS cell viability, all six MCC cell lines as a group (mean AUC, MCC.avg); assay type: cell-based, human
[9] = tested on: WAGA cells (VP-MCC); assay: qHTS cell viability (CellTiter-Glo, 72 h; primary and follow-up small molecule screen); assay type: cell-based, human; conditions: for Area under the dose-response curve (AUC) WAGA Replicate 1 / Area under the dose-response curve (AUC) WAGA Replicate 2 / Area under the dose-response curve (AUC) WAGA Replicate 3: follow-up screen
[10] = tested on: MCC26 cells (VN-MCC); assay: as above; assay type: cell-based, human
[11] = tested on: HEK293T cells; assay: qHTS cell viability (CellTiter-Glo, 72 h; primary screen), control cell line; assay type: cell-based, human
[12] = tested on: six MCC cell lines and four control cell lines; assay: qHTS cell viability, all 10 cell lines screened; assay type: cell-based
[13] = tested on: CRL-7250 cells; assay: qHTS cell viability (CellTiter-Glo, 72 h; primary screen), control cell line; assay type: cell-based
[14] = tested on: UISO cells (VN-MCC); assay: qHTS cell viability (CellTiter-Glo, 72 h; primary and follow-up small molecule screen); assay type: cell-based, human; conditions: for Area under the dose-response curve (AUC) UISO Replicate 1 / Area under the dose-response curve (AUC) UISO Replicate 2 / Area under the dose-response curve (AUC) UISO Replicate 3: follow-up screen
[15] = tested on: control cell lines (HACAT, HEK293T, CRL-7250, NIH-3T3); assay: qHTS cell viability, control cell lines as a group (mean AUC, Control.avg); assay type: cell-based
[16] = NPC library, mean AUC of VN-MCC cell lines
[17] = NPC library, therapeutic window: Control avg AUC minus VN-MCC avg AUC
[18] = NPC library, qHTS dose-response AUC, MCC13
[19] = NPC library, mean AUC of VP-MCC cell lines
[20] = NPC library, therapeutic window: Control avg AUC minus VP-MCC avg AUC
[21] = NPC library, qHTS dose-response AUC, NIH3T3 control
[22] = NPC library, qHTS dose-response AUC, HACAT control
[23] = NPC library, qHTS dose-response AUC, MKL1
[24] = NPC library, qHTS dose-response AUC, MKL2
[25] = NPC library, mean AUC of six MCC cell lines
[26] = NPC library, qHTS dose-response AUC, WAGA
[27] = NPC library, therapeutic window: Control avg AUC minus MCC avg AUC
[28] = NPC library, qHTS dose-response AUC, CRL7250 control
[29] = NPC library, qHTS dose-response AUC, UISO
[30] = NPC library, mean AUC of control cell lines
[31] = MIPE library, 11-point DRC, sheet S2E
[32] = MIPE library, 11-point DRC, control cell line, sheet S2E
[33] = follow-up screen; MCC26; replicate 1
[34] = follow-up screen; MCC26; replicate 2
[35] = follow-up screen; MCC26; replicate 3

CCOC(=O)[C@@](C)(N)Cc1ccc(O)c(O)c1 [Methyldopate hydrochloride]
VN-MCC_Avg_AUC [1, 16]: 434.044 | Control-VN-MCC [1, 17]: 7.843 | MCC13_AUC [2, 18]: 447.588 | VP-MCC_Avg_AUC [3, 19]: 389.202 | Control-VP-MCC [3, 20]: 52.6846 | NIH3T3_AUC [4, 21]: 431.18 | HACAT_AUC [5, 22]: 480.325 | MKL1_AUC [6, 23]: 366.496 | MKL2_AUC [7, 24]: 398.602 | MCC_Avg_AUC [8, 25]: 411.623 | WAGA_AUC [9, 26]: 402.509 | MCC26_AUC ([10]; NPC library; qHTS dose-response AUC, MCC26): 437.99 | HEK293T_AUC ([11]; NPC library; qHTS dose-response AUC, HEK293T control): 443.954 | Control-MCC [12, 27]: 30.264 | CRL7250_AUC [13, 28]: 412.089 | UISO_AUC [14, 29]: 416.553 | Control_Avg_AUC [15, 30]: 441.887

CC#C[C@]1(O)CC[C@H]2[C@@H]3CCC4=CC(=O)CCC4=C3[C@@H](c3ccc(N(C)C)cc3)C[C@@]21C [Mifepristone]
Control-VN-MCC ([1]; MIPE library, Control AUC minus VN-MCC AUC (therapeutic window), sheet S2E): 23.0495 | VN-MCC_Avg_AUC ([1]; MIPE library, mean AUC of VN-MCC cell lines, sheet S2E): 425.738 | MCC13_AUC [2, 31]: 450.219 | Area under the dose-response curve (AUC) MCC13 Replicate 1 ([2]; MCC13): 516.1 | Area under the dose-response curve (AUC) MCC13 Replicate 2 ([2]; MCC13): 505.4 | Area under the dose-response curve (AUC) MCC13 Replicate 3 ([2]; MCC13): 486.2 | Control-VP-MCC ([3]; MIPE library, Control AUC minus VP-MCC AUC (therapeutic window), sheet S2E): 171.607 | VP-MCC_Avg_AUC ([3]; MIPE library, mean AUC of VP-MCC cell lines, sheet S2E): 277.18 | NIH3T3_AUC [4, 32]: 475.344 | HACAT_AUC [5, 32]: 471.301 | MKL1_AUC [6, 31]: 274.173 | Area under the dose-response curve (AUC) MKL-1 Replicate 1 [6]: 491.0 | Area under the dose-response curve (AUC) MKL-1 Replicate 2 [6]: 482.0 | Area under the dose-response curve (AUC) MKL-1 Replicate 3 [6]: 520.5 | MKL2_AUC [7, 31]: 266.162 | Area under the dose-response curve (AUC) MKL-2 Replicate 1 [7]: 494.5 | Area under the dose-response curve (AUC) MKL-2 Replicate 2 [7]: 503.2 | Area under the dose-response curve (AUC) MKL-2 Replicate 3 [7]: 499.4 | MCC_Avg_AUC ([8]; MIPE library, mean AUC of six MCC cell lines, sheet S2E): 351.459 | WAGA_AUC [9, 31]: 291.204 | Area under the dose-response curve (AUC) WAGA Replicate 1 ([9]; WAGA): 532.2 | Area under the dose-response curve (AUC) WAGA Replicate 2 ([9]; WAGA): 542.6 | Area under the dose-response curve (AUC) WAGA Replicate 3 ([9]; WAGA): 501.4 | MCC26_AUC [10, 31]: 459.158 | Area under the dose-response curve (AUC) MCC26 Replicate 1 [10, 33]: 467.8 | Area under the dose-response curve (AUC) MCC26 Replicate 2 [10, 34]: 425.4 | Area under the dose-response curve (AUC) MCC26 Replicate 3 [10, 35]: 483.6 | HEK293T_AUC [11, 32]: 403.35 | Control-MCC ([12]; MIPE library, Control AUC minus MCC AUC (therapeutic window), sheet S2E): 97.3285 | CRL7250_AUC [13, 32]: 445.154 | UISO_AUC [14, 31]: 367.837 | Area under the dose-response curve (AUC) UISO Replicate 1 ([14]; UISO): 472.5 | Area under the dose-response curve (AUC) UISO Replicate 2 ([14]; UISO): 481.5 | Area under the dose-response curve (AUC) UISO Replicate 3 ([14]; UISO): 472.0 | Control_Avg_AUC ([15]; MIPE library, mean AUC of control cell lines, sheet S2E): 448.787

COc1c(C)c2c(c(O)c1C/C=C(\C)CCC(=O)OCCN1CCOCC1)C(=O)OC2 [Mycophenolate mofetil]
Control-VN-MCC ([1]; Control AUC minus VN-MCC AUC): 24.7903 | VN-MCC_Avg_AUC [1, 16]: 375.798 | Control-VN-MCC [1, 17]: 24.7903 | MCC13_AUC [2, 18]: 354.203 | Area under the dose-response curve (AUC) MCC13 Replicate 1 ([2]; MCC13): 377.4 | Area under the dose-response curve (AUC) MCC13 Replicate 2 ([2]; MCC13): 383.7 | Area under the dose-response curve (AUC) MCC13 Replicate 3 ([2]; MCC13): 412.3 | Control-VP-MCC ([3]; Control AUC minus VP-MCC AUC): 263.498 | VP-MCC_Avg_AUC [3, 19]: 137.09 | Control-VP-MCC [3, 20]: 263.498 | NIH3T3_AUC [4, 21]: 433.09 | HACAT_AUC [5, 22]: 439.79 | MKL1_AUC [6, 23]: 148.352 | Area under the dose-response curve (AUC) MKL-1 Replicate 1 [6]: 342.8 | Area under the dose-response curve (AUC) MKL-1 Replicate 2 [6]: 365.2 | Area under the dose-response curve (AUC) MKL-1 Replicate 3 [6]: 378.9 | MKL2_AUC [7, 24]: 105.914 | Area under the dose-response curve (AUC) MKL-2 Replicate 1 [7]: 325.5 | Area under the dose-response curve (AUC) MKL-2 Replicate 2 [7]: 324.8 | Area under the dose-response curve (AUC) MKL-2 Replicate 3 [7]: 367.3 | MCC_Avg_AUC ([8]; NPC library, mean AUC of all 6 MCC cell lines): 256.444 | MCC_Avg_AUC [8, 25]: 256.444 | WAGA_AUC [9, 26]: 157.003 | Area under the dose-response curve (AUC) WAGA Replicate 1 ([9]; WAGA): 322.6 | Area under the dose-response curve (AUC) WAGA Replicate 2 ([9]; WAGA): 354.0 | Area under the dose-response curve (AUC) WAGA Replicate 3 ([9]; WAGA): 383.1 | MCC26_AUC ([10]; NPC library, qHTS dose-response AUC, MCC26): 393.051 | Area under the dose-response curve (AUC) MCC26 Replicate 1 [10, 33]: 381.3 | Area under the dose-response curve (AUC) MCC26 Replicate 2 [10, 34]: 385.2 | Area under the dose-response curve (AUC) MCC26 Replicate 3 [10, 35]: 373.0 | HEK293T_AUC ([11]; NPC library, qHTS dose-response AUC, HEK293T control): 332.795 | Control-MCC [12, 27]: 144.144 | CRL7250_AUC [13, 28]: 396.679 | UISO_AUC [14, 29]: 380.141 | Area under the dose-response curve (AUC) UISO Replicate 1 ([14]; UISO): 348.1 | Area under the dose-response curve (AUC) UISO Replicate 2 ([14]; UISO): 378.4 | Area under the dose-response curve (AUC) UISO Replicate 3 ([14]; UISO): 389.6 | Control_Avg_AUC [15, 30]: 400.588

CCN(CC)CCc1c[nH]c2ccccc12.O=C(O)/C=C/C(=O)O [N,N-Diethyltryptamine fumarate]
Control-VN-MCC [1]: 56.4273 | VN-MCC_Avg_AUC [1]: 415.93 | MCC13_AUC [2]: 439.565 | Control-VP-MCC [3]: 25.7182 | VP-MCC_Avg_AUC [3]: 446.639 | NIH3T3_AUC [4]: 478.712 | HACAT_AUC [5]: 490.224 and 490.225 | MKL1_AUC [6]: 443.844 | MKL2_AUC [7]: 447.202 | MCC_Avg_AUC [8]: 431.284 | WAGA_AUC [9]: 448.87 and 448.871 | MCC26_AUC [10]: 402.623 | HEK293T_AUC [11]: 459.326 | Control-MCC [12]: 41.0728 | CRL7250_AUC [13]: 461.166 | UISO_AUC [14]: 405.6 | Control_Avg_AUC [15]: 472.357

CCCN(CCC)CCc1c[nH]c2ccccc12.Cl [N,N-Dipropyltryptamine hydrochloride]
Control-VN-MCC [1]: 47.3665 | VN-MCC_Avg_AUC [1]: 431.8 | MCC13_AUC [2]: 455.096 | Control-VP-MCC [3]: 69.8085 | VP-MCC_Avg_AUC [3]: 409.358 | NIH3T3_AUC [4]: 481.316 | HACAT_AUC [5]: 490.19 | MKL1_AUC [6]: 391.099 | MKL2_AUC [7]: 402.2 | MCC_Avg_AUC [8]: 420.579 | WAGA_AUC [9]: 434.773 | MCC26_AUC [10]: 415.779 | HEK293T_AUC [11]: 447.306 | Control-MCC [12]: 58.5875 | CRL7250_AUC [13]: 497.853 | UISO_AUC [14]: 424.523 | Control_Avg_AUC [15]: 479.166
